Data as given in US11292788B2, “IL-17 and IFN-gamma inhibition for the treatment of autoimmune diseases and chronic inflammation” (Immunic AG, priority 2017, dated 2022).
Values after ≈ are worked out from the molar mass of the structure shown. Read-outs that look alike come from different tables or passages of the source.

Columns and labels:
[1] = tested on: IL-17A; assay: Cytokine assay: IL-17A production by human PBMC stimulated with PHA; type: cell-based; conditions: IC50 class, read-out: IL-17A Inhib.
Procedure, shortened: (§1)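 Human donor PBMC (1×10^5 cells/well) were activated with 2 μg/ml PHA and exposed to compounds for 48 h. Supernatant IL-17A, IL-17F and IFN-γ were measured by Luminex or ELISA. Screening used 10, 1, 0.1 and 0.01 μM; IC50 values came from semilogarithmic titrations.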

[2] = tested on: IL-17F; assay: Cytokine assay: IL-17F production by human PBMC stimulated with PHA; type: cell-based; conditions: IC50 class, read-out: IL-17F Inhib.
Procedure, shortened: as §1

[3] = tested on: INF-γ; assay: Cytokine assay: INF-γ production by human PBMC stimulated with PHA; type: cell-based; conditions: IC50 class, read-out: IFN-gamma Inhib.
Procedure, shortened: as §1

[4] = Aqueous solubility in 50 mM phosphate buffer (HPLC/DAD); type: physicochemical; conditions: aqueous solubility class; for solubility at 24 h: 50 mM phosphate buffer, 23 °C, pH 7.4, aqueous buffer, kinetic from dmso stock, read-out: aq. solub.
Protocol: To achieve this, the samples (final volume 500 μl, 200 μM compound concentration) were incubated for 24 hours at 23° C. under continuous shaking at 1400 rpm (Thermomixer, Eppendorf) in aqueous phosphate buffers (pH 4.0, 6.0, 7.4 and 9.0) with a final DMSO concentration of 1%. To separate the undissolved compound from the solution, the samples were centrifuged (30 min 18000 g at 23° C.). Supernatants were measured via HPLC equipped with a UV detector and concentrations were calculated according to signals of a standard curve. The standard curve was prepared by diluting a stock solution of each compound (c=0.1 mg/ml; received by adding 10 μl of 20 mM compound in DMSO to 914 μl MeCN) in a certain amount of MeCN to cover a range of 0.1 to 200 μg/ml.

[5] = Microsomal stability: incubation with human liver microsomes, residual parent compound by HPLC-MS/MS; type: in vitro ADME; conditions: up to 60 min; for half-life at 1 μM: read-out: t1/2 hLM
Protocol: Metabolic stability of compounds of the present invention was determined by incubation with human liver microsomes and subsequent determination of residual amount of the respective compound (“parent compound”) by HPLC-MS/MS.
In order to achieve this, in a final reaction volume of 1000 μl, each compound was incubated at a final concentration of 1 μM with 0.5 mg/ml human liver microsomes (HLM Pool 50 Donors, 20 mg/ml, BD Gentest, #452156, LotNr 88114) in 0.1 M Potassium phosphate buffer at pH 7.4, with a cofactor in form of a NADPH regenerating system (Promega, #V9510) according to the manufacturers' specifications. The final DMSO concentration in each sample was 0.4%. The incubation was performed at 37° C. under shaking conditions (Thermomixer, 1400 rpm) for different time intervals up to 60 min. To stop the reaction, for each time point 200 μl of the reaction were taken out and 200 μl ice-cold acetonitrile was added. Then, the samples were centrifuged (4° C., 14000*g for 15 min). The supernatant was analyzed for residual parent compound concentration and scanned for metabolites using HPLC-MS/MS. By using optimized MS methods for each compound, the peak area under curve for the compound specific signal is determined. The change of the peak areas over the assay time of 60 min resemble the remaining parent compound in % of T0. By these points, a balancing line was set. The half-time, as well as the clearance, can then be calculated on the basis of the slope.

[6] = human liver microsomes 0.5 mg/ml, compound 1 μM, pH 7.4, 37° C.

Compound	IC50 ([1]; Homo sapiens, PBMC) [nM]	IC50 ([2]; Homo sapiens, PBMC) [nM]	IC50 ([3]; Homo sapiens, PBMC) [nM]	solubility at 24 h [4] [µM]	half-life at 1 μM [5, 6] [h]	half-life at 1 μM ([5]; pH 7.4, human liver microsomes, 1 μM compound, 0.5 mg/ml HLM, 37° C.) [h]	IC50 [1] [nM]	IC50 [2] [nM]	IC50 [3] [nM]	aq. solub. [4]	t1/2 hLM [5, 6]
[2H]C(C)(O)Cn1ncc(-c2onc(-c3c(F)cccc3Cl)c2C(=O)OC)c1C(F)(F)F (racemic) [Example 33, methyl 3-(2-chloro-6-fluorophenyl)-5-{1-[2-hydroxy(2-^2H)propyl]-5-(trifluoromethyl)-1H-pyrazol-4-yl}-1,2-oxazole-4-carboxylate]	< 50	< 50	< 50	> 10	> 1.67	–	–	–	–	–	–
C[C@@H](O)Cn1ncc(-c2onc(-c3cccc(C(=O)N4CCCC4)c3Cl)c2-c2ccncn2)c1C(F)(F)F [Example 160, (R)-(2-chloro-3-(5-(1-(2-hydroxypropyl)-5-(trifluoromethyl)-1H-pyrazol-4-yl)-4-(pyrimidin-4-yl)isoxazol-3-yl)phenyl)(pyrrolidin-1-yl)methanone]	< 50	< 50	< 50	> 10	–	0.167 to 0.666	–	–	–	–	–
CCOC(=O)c1c(-c2c(F)cccc2Cl)noc1-c1cnn(CC(C)(C)O)c1C(F)(F)F [Example 8, ethyl 3-(2-chloro-6-fluorophenyl)-5-(1-(2-hydroxy-2-methylpropyl)-5-(trifluoromethyl)-1H-pyrazol-4-yl)isoxazole-4-carboxylate]	< 50	50 to 500	< 50	3 to 9.99 (≈ 1.43 to 4.75 µg/mL)	> 1.67	–	–	–	–	–	–
[2H]C(C)(O)Cn1ncc(-c2onc(-c3c(F)cccc3Cl)c2C(=O)OCC)c1C(F)(F)F (racemic) [Example 32, ethyl 3-(2-chloro-6-fluorophenyl)-5-{1-[2-hydroxy(2-^2H)propyl]-5-(trifluoromethyl)-1H-pyrazol-4-yl}-1,2-oxazole-4-carboxylate]	< 50	< 50	< 50	> 10	0.667 to 1.67	–	–	–	–	–	–
COCc1c(-c2c(F)cccc2Cl)noc1-c1cnn(C[C@@H](C)O)c1C(F)(F)F [Example 66, (2R)-1-(4-(3-(2-chloro-6-fluorophenyl)-4-(methoxymethyl)isoxazol-5-yl)-5-(trifluoromethyl)-1H-pyrazol-1-yl)propan-2-ol]	50 to 500	50 to 500	< 50	> 10	–	–	–	–	–	–	–
COC(=O)c1c(-c2c(F)cccc2Cl)noc1-c1cnn([C@H]2C[C@](C)(O)C2)c1C(F)(F)F [Example 27, methyl 3-(2-chloro-6-fluorophenyl)-5-(1-(3-hydroxy-3-methylcyclobutyl)-5-(trifluoromethyl)-1H-pyrazol-4-yl)isoxazole-4-carboxylate]	–	–	–	–	–	–	< 50	< 50	< 50	++ (++: 3-9.99 μM)	++ (++: 40-100 min)
CCN(CC)CCOc1cccc(-c2noc(-c3cnn(CCC(C)(C)O)c3C)c2-c2ncccn2)c1Cl [Example 144, 4-[4-(3-{2-chloro-3-[2-(diethylamino)ethoxy]phenyl}-4-(pyrimidin-2-yl)-1,2-oxazol-5-yl)-5-methyl-1H-pyrazol-1-yl]-2-methylbutan-2-ol]	500 to 5000	500 to 5000	50 to 500	> 10	–	–	–	–	–	–	–
COCc1c(-c2c(F)cccc2Cl)noc1-c1cnn(CC(C)(C)O)c1C(F)(F)F [Example 65, 1-(4-(3-(2-chloro-6-fluorophenyl)-4-(methoxymethyl)isoxazol-5-yl)-5-(trifluoromethyl)-1H-pyrazol-1-yl)-2-methylpropan-2-ol]	500 to 5000	500 to 5000	500 to 5000	> 10	–	–	–	–	–	–	–
